Source: ChEMBL document CHEMBL3994614, “Novel flavonolignan hybrid antioxidants: From enzymatic preparation to molecular rationalization” (Eur J Med Chem, 2017)
Active and inactive are the calls of the source. The rule behind the calls is not given here.

Key:
[1] = Antioxidant activity assessed as DPPH radical scavenging activity after 30 mins by spectrophotometric method; type: functional
[2] = Antioxidant activity assessed as DPPH radical scavenging activity after 30 mins in presence of L-ascorbic acid by spectrophotometric method; type: functional
[3] = Antioxidant activity assessed as trolox equivalent of ABTS radical scavenging activity at 100 uM measured at >= 5 mins; type: functional
[4] = test system: HepG2; assay: Cytoprotective activity against tert-butyl hydroperoxide-induced toxicity in human HepG2 cells assessed as cell viability at 5 uM pretreated for 1 hr followed by co-treatment with tert-butyl hydroperoxide for 3 hrs by MTT assay (reference value: 22%); type: functional
[5] = Antioxidant activity assessed as trolox equivalent of ABTS radical scavenging activity at 100 uM measured at >= 5 mins in presence of L-ascorbic acid; type: functional
[6] = test system: Liver; assay: Antioxidant activity against tert-butyl hydroperoxide-induced lipoperoxidation in rat liver microsomal membranes preincubated for 10 mins followed by tert-butyl hydroperoxide addition measured after 60 mins in presence of L-ascorbic acid by TBARS assay; type: functional, cell membranes, Microsomal Membrane
[7] = test system: HepG2; assay: Cytoprotective activity against tert-butyl hydroperoxide-induced toxicity in human HepG2 cells assessed as cell viability at 5 uM pretreated for 1 hr followed by tert-butyl hydroperoxide addition for 3 hrs by MTT assay (reference value: 16%); type: functional
[8] = Antiradical activity assessed as gallic acid equivalents of Foline-Ciocalteu reagent reducing capacity at 1 mM preincubated for 5 mins followed by Na2CO3 addition measured after 90 mins in presence of L-ascorbic acid
[9] = test system: HepG2; assay: Cytoprotective activity against tert-butyl hydroperoxide-induced decrease in cell viability in human HepG2 cells at 5 uM pretreated for 1 hr followed by co-treatment with tert-butyl hydroperoxide for 3 hrs in presence of L-ascorbic acid by MTT assay; type: functional, cell-based
[10] = Antiradical activity assessed as gallic acid equivalents of Foline-Ciocalteu reagent reducing capacity at 1 mM preincubated for 5 mins followed by Na2CO3 addition measured after 90 mins
[11] = Electro-oxidation activity at glassy carbon electrode in pH 5 acetate buffer at 50 uM by square-wave voltammetry
[12] = test system: HepG2; assay: Cytotoxicity against human HepG2 cells assessed as reduction in cell viability up to 10 uM after 4 hrs by MTT assay; type: cell-based; conditions: hepg2, 4 h
[13] = test system: Liver; assay: Antioxidant activity against tert-butyl hydroperoxide-induced lipoperoxidation in rat liver microsomal membranes preincubated for 10 mins followed by tert-butyl hydroperoxide addition measured after 60 mins by TBARS assay; type: functional, cell membranes, Microsomal Membrane
[14] = test system: Liver; assay: Antioxidant activity against tert-butyl hydroperoxide-induced lipoperoxidation in rat liver microsomal membranes preincubated for 10 mins followed by tert-butyl hydroperoxide addition measured after 60 mins in presence of silybin by TBARS assay; type: functional, cell membranes, Microsomal Membrane
[15] = Antiradical activity assessed as gallic acid equivalents of Foline-Ciocalteu reagent reducing capacity at 1 mM preincubated for 5 mins followed by Na2CO3 addition measured after 90 mins in presence of silybin
[16] = test system: Liver; assay: Antioxidant activity against tert-butyl hydroperoxide-induced lipoperoxidation in rat liver microsomal membranes at 1 mM preincubated for 10 mins followed by tert-butyl hydroperoxide addition measured after 60 mins by TBARS assay relative to control; type: functional, cell membranes; conditions: Microsomal Membrane
[17] = test system: HepG2; assay: Cytoprotective activity against tert-butyl hydroperoxide-induced decrease in cell viability in human HepG2 cells at 5 uM pretreated for 1 hr followed by co-treatment with tert-butyl hydroperoxide for 3 hrs in presence of silybin by MTT assay; type: functional, cell-based
[18] = Antioxidant activity assessed as trolox equivalent of ABTS radical scavenging activity at 100 uM measured at >= 5 mins in presence of silybin; type: functional
[19] = test system: Liver; assay: Antioxidant activity against tert-butyl hydroperoxide-induced lipoperoxidation in rat liver microsomal membranes at 50 uM preincubated for 10 mins followed by tert-butyl hydroperoxide addition measured after 60 mins by TBARS assay relative to control; type: functional, cell membranes; conditions: Microsomal Membrane
[20] = Antioxidant activity assessed as DPPH radical scavenging activity after 30 mins in presence of silybin by spectrophotometric method; type: functional
[21] = Electro-oxidation activity at glassy carbon electrode in pH 2 to 12 at 50 uM by square-wave voltammetry
[22] = Aqueous solubility of the compound in buffer solution; type: physicochemical

`COc1cc(C2Oc3cc([C@H]4Oc5cc(O)cc(O)c5C(=O)[C@@H]4O)ccc3OC2CO)ccc1O` (stereo not given in full) [SILIBININ] gave an IC50 [1] of 244 µM, an IC50 [2] of 2940 nM and an Activity [3] of 0.78 equiv. The Activity [4] was “inactive”, the Activity [5] was 0.42 equiv and the IC50 [6] was 56.5 µM. For the same compound, the Activity [7] was “inactive”, the Activity [8] was 0.25 equiv and the Activity [9] was “inactive”. The Activity [10] was 0.92 equiv, the Activity [11] was “inactive” and the Activity [12] was “Non-Toxic”. The IC50 [13] was 77.1 µM.
`COc1cc([C@H]2Oc3cc([C@H]4Oc5cc(O)cc(O)c5C(=O)[C@@H]4O)ccc3O[C@@H]2COC(=O)CCCCCCCCCCC(=O)OCC2(C)CCc3c(C)c(O)c(C)c(C)c3O2)ccc1O` (stereo not given in full) showed an IC50 [1] of 3.5 µM, an Activity [3] of 0.24 equiv and an Activity [10] of 0.15 equiv. The Activity [11] was “inactive” and the IC50 [13] was 72.9 µM.
For `O=C1O[C@H]([C@@H](O)CO)C(O)=C1O` [ASCORBIC ACID], the IC50 [1] was 2.76 µM, the Activity [3] was 0.57 equiv and the Activity [4] was “inactive”. The IC50 [14] was 56.5 µM, the Activity [15] was 0.25 equiv and the Activity [7] was “inactive”. For the same compound, the inhibition [16] was 13%, the Activity [17] was “inactive” and the Activity [10] was 0.51 equiv. For the same compound, the Activity [18] was 0.42 equiv, the inhibition [19] was 139% and the Activity [12] was “Non-Toxic”. The IC50 [13] was over 1000 µM and the IC50 [20] was 2940 nM.
In the case of `COc1cc([C@H]2Oc3cc([C@H]4Oc5cc(O)cc(O)c5C(=O)[C@@H]4O)ccc3O[C@@H]2COC(=O)CCCCCCCCCCC(=O)OC[C@H](O)[C@H]2OC(=O)C(O)=C2O)ccc1O`, the IC50 [1] is reported as 20.6 µM, the Activity [3] is reported as 1.32 equiv and the viability at 5 µM ([4]; read-out: Activity) is reported as 43%. For the same compound, the Activity [21] was “Active”, the viability at 5 µM ([7]; read-out: Activity) was 27% and the Activity [10] was 0.65 equiv. For the same compound, the Activity [11] was “Active”, the Activity [12] was “Non-Toxic” and the IC50 [13] was 30.2 µM.
`Cc1c(C)c2c(c(C)c1O)CCC(C)(CO)O2` (stereo not given) gave an IC50 [1] of 3.58 µM.
With `C=COC(=O)CCCCCCCCCCC(=O)OC=C` the Activity [11] was “inactive”.
For `C=COC(=O)CCCCCCCCCCC(=O)OC[C@H]1Oc2ccc([C@H]3Oc4cc(O)cc(O)c4C(=O)[C@@H]3O)cc2O[C@@H]1c1ccc(O)c(OC)c1`, the IC50 [1] was 372 µM, the Activity [3] was 0.93 equiv and the solubility [22] was “Insoluble”. For the same compound, the Activity [10] was 0.15 equiv, the Activity [11] was “inactive” and the IC50 [13] was 111 µM.
Compound `COc1cc([C@H]2Oc3cc([C@H]4Oc5cc(O)cc(O)c5C(=O)[C@@H]4O)ccc3O[C@@H]2COC(=O)CCCCCCCCCCC(=O)OCCc2ccc(O)cc2)ccc1O` has an IC50 [1] of 253 µM, an Activity [3] of 0.33 equiv and an inhibition [16] of 17%. For the same compound, the Activity [10] was 0.17 equiv, the Activity [11] was “inactive” and the IC50 [13] was over 1000 µM.
